Laboratory results: PubChem BioAssay (NCI)
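At the GI50, growth is halved. The concentration for full growth arrest is given as TGI.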

Experiments:
Assay in all cases: growth of human tumour cells (NCI), 384-well format; in the data active = GI50 below about 0.43 µM; inactive = the rest
[1] = test system: NCI/ADR-RES ovarian
[2] = test system: NCI-H460 NSCLC
[3] = test system: UO-31 renal
[4] = test system: MDA-MB-468 breast
[5] = test system: SF-295 CNS
[6] = test system: HOP-62 NSCLC
[7] = test system: 786-0 renal
[8] = test system: HOP-92 NSCLC
[9] = test system: SF-268 CNS
[10] = test system: NCI-H322M lung
[11] = test system: T-47D breast
[12] = test system: OVCAR-8 ovarian
[13] = test system: EKVX NSCLC
[14] = test system: SK-MEL-5 melanoma
[15] = test system: OVCAR-3 ovarian
[16] = test system: OVCAR-4 ovarian
[17] = test system: TK-10 renal
[18] = test system: HL-60(TB) leukemia
[19] = test system: SN12C renal
[20] = test system: NCI-H522 lung
[21] = test system: SW-620 colon
[22] = test system: HCT-15 colon
[23] = test system: MOLT-4 leukemia
[24] = test system: HCC-2998 colon
[25] = test system: HCT-116 colon
[26] = test system: BT-549 breast
[27] = test system: U251 glioblastoma
[28] = test system: HS 578T breast
[29] = test system: RXF 393 renal
[30] = test system: UACC-62 melanoma
[31] = test system: UACC-257 melanoma
[32] = test system: KM12 colon
[33] = test system: COLO 205 colon
[34] = test system: CCRF-CEM leukemia
[35] = test system: RPMI-8226 leukemia
[36] = test system: SF-539 CNS
[37] = test system: MDA-MB-231 breast
[38] = test system: CAKI-1 renal
[39] = test system: MDA-MB-435 melanoma
[40] = test system: ACHN renal
[41] = test system: IGROV1 ovarian
[42] = test system: SNB-75 CNS
[43] = test system: NCI-H23 lung
[44] = test system: SK-OV-3 ovarian
[45] = test system: LOX IMVI melanoma
[46] = test system: NCI-H226 lung
[47] = test system: SR leukemia
[48] = test system: HT29 colon
[49] = test system: SK-MEL-28 melanoma
[50] = test system: A549 NSCLC
[51] = test system: M14 melanoma
[52] = test system: K-562 leukemia
[53] = test system: MALME-3M melanoma
[54] = test system: SNB-19 CNS
[55] = test system: PC-3 prostate
[56] = test system: DU-145 prostate
[57] = test system: A498 renal

CCC(Sc1nnc2c3ccccc3n(CC)c2n1)C(=O)Nc1ccccc1OC (centres undefined)
5.23 µM: TGI [43]
5.44 µM: TGI [13]
5.99 µM: TGI [47]
5.17 µM: TGI [19]
inactive: GI50 [1] > 100 µM | GI50 [2] > 100 µM | GI50 [3] 3.74 µM | GI50 [5] > 100 µM | GI50 [6] 3.56 µM | GI50 [7] > 100 µM | GI50 [8] > 100 µM | GI50 [9] > 100 µM | GI50 [10] 4.91 µM | GI50 [11] > 100 µM | GI50 [12] > 100 µM | GI50 [13] 0.547 µM | GI50 [14] 5.43 µM | GI50 [15] 3.28 µM | GI50 [16] > 100 µM | GI50 [17] > 100 µM | GI50 [18] 0.444 µM | GI50 [19] 1.18 µM | GI50 [20] > 100 µM | GI50 [21] > 100 µM | GI50 [22] 7.59 µM | GI50 [23] 3.51 µM | GI50 [24] > 100 µM | GI50 [25] > 100 µM | GI50 [26] > 100 µM | GI50 [27] > 100 µM | GI50 [28] > 100 µM | GI50 [29] > 100 µM | GI50 [30] > 100 µM | GI50 [31] > 100 µM | GI50 [32] > 100 µM | GI50 [33] > 100 µM | GI50 [34] > 100 µM | GI50 [35] 0.451 µM | GI50 [36] > 100 µM | GI50 [37] > 100 µM | GI50 [39] > 100 µM | GI50 [40] > 100 µM | GI50 [41] > 100 µM | GI50 [42] > 100 µM | GI50 [43] 1.67 µM | GI50 [44] > 100 µM | GI50 [45] > 100 µM | GI50 [46] > 100 µM | GI50 [47] 3.3 µM | GI50 [48] > 100 µM | GI50 [49] > 100 µM | GI50 [50] 4.27 µM | GI50 [51] > 100 µM | GI50 [52] 7.45 µM | GI50 [53] > 100 µM | GI50 [54] > 100 µM | GI50 [55] > 100 µM | GI50 [56] > 100 µM | GI50 [57] 4.74 µM
active: GI50 [4] 0.229 µM | GI50 [38] 0.384 µM
2.65 µM: TGI [38]
1.92 µM: TGI [35]
1.48 µM: TGI [18]
> 100 µM: TGI [1] | TGI [2] | TGI [3] | TGI [5] | TGI [6] | TGI [7] | TGI [8] | TGI [9] | TGI [10] | TGI [11] | TGI [12] | TGI [14] | TGI [15] | TGI [16] | TGI [17] | TGI [20] | TGI [21] | TGI [22] | TGI [24] | TGI [25] | TGI [26] | TGI [27] | TGI [28] | TGI [29] | TGI [30] | TGI [31] | TGI [32] | TGI [33] | TGI [34] | TGI [36] | TGI [37] | TGI [39] | TGI [40] | TGI [41] | TGI [42] | TGI [44] | TGI [45] | TGI [46] | TGI [48] | TGI [49] | TGI [50] | TGI [51] | TGI [52] | TGI [53] | TGI [54] | TGI [55] | TGI [56] | TGI [57]
79.7 µM: TGI [23]
0.475 µM: TGI [4]
